According to the NIST ThermoML archive (doi:10.1021/je7004837):
Numbers after ± are expanded uncertainties.

Conditions: Liquid, Ebulliometric method (Recirculating still)

| vapor or sublimation pressure (273.15 K) | vapor or sublimation pressure (283.15 K) | vapor or sublimation pressure (293.15 K) | vapor or sublimation pressure (303.15 K) | vapor or sublimation pressure (313.15 K) | vapor or sublimation pressure (323.15 K) | SMILES |
| --- | --- | --- | --- | --- | --- | --- |
| 194 ± 2 kPa | 280 ± 2 kPa | 389 ± 3 kPa | 527 ± 3 kPa | 704 ± 3 kPa | 920 ± 4 kPa | FC(C(F)(F)F)C(F)(F)F [1,1,1,2,3,3,3-heptafluoropropane] |
| 104 ± 2 kPa | 150 ± 2 kPa | 208 ± 2 kPa | 284 ± 2 kPa | 378 ± 2 kPa | 494 ± 3 kPa | CCCC [butane] |
